Three molecules from patent US20220151989A1, “LIPOIC ACID PRODRUG” (SANTEN PHARMACEUTICAL CO., LTD., priority 2019, published 2022) can be followed below.

Molecules are shown by their SMILES. Values joined by “and” are separate entries in the source; they are usually repeats but may differ in a detail not shown here. Identical values can stand only once.

Series [1] has as its system anterior segment of the eye. As to the kind of experiment: Ocular Irritation Test-1: modified Draize test and slit lamp examination. The class given is in vivo, Japanese White rabbit. Also noted: key to Irritation Score of anterior segment of the eye: Palpebral conjunctival edema / Irritation Score of anterior segment of the eye: Bulbar conjunctival hyperemia / Irritation Score of anterior segment of the eye: Hyperemia of nictitating membrane / Irritation Score of anterior segment of the eye: Discharge / Slit lamp observation / Irritation Score of anterior segment of the eye: Flare of palpebral conjunctiva: +0.5: very slight; +1: slight; +2: moderate; +3: severe; —: No noteworthy findings. The conditions noted are these: for slit lamp examination / irritation in anterior segment of the eye: 0.03% and 0.3% eye drops; for irritation in anterior segment of the eye: modified Draize test; for Irritation Score of anterior segment of the eye: Bulbar conjunctival hyperemia / Irritation Score of anterior segment of the eye: Discharge / Irritation Score of anterior segment of the eye: Flare of palpebral conjunctiva / Irritation Score of anterior segment of the eye: Hyperemia of nictitating membrane / Irritation Score of anterior segment of the eye: Palpebral conjunctival edema / Slit lamp observation: 50 μL/eye ten times at 30 minute intervals, 1 hour after last instillation. The procedure: 0.03% (w/v) and 0.3% (w/v) Compound 1 eye drops, and 0.03% (w/v) and 0.3% (w/v) Compound 3 eye drops were prepared in the same manner as Preparation of Test sample in Pharmacological test-2. Vehicle A was used for a vehicle group. 0.03% (w/v) and 0.3% (w/v) Compound 1 eye drops, 0.03% (w/v) and 0.3% (w/v) Compound 3 eye drops, and the vehicle were each instilled into the left eye of a Japanese White rabbit at a dose of 50 μL/eye with pipette ten times at 30 minute intervals. One hour after the final instillation, ocular irritation of anterior segment of the eye was evaluated according to the modified Draize test, and a slit lamp examination was performed. The contralateral eye was untreated. The ocular irritation of anterior segment of the eye was scored according to the following criteria: +0.5: very slight; +1: slight; +2: moderate; +3: severe

Series [2] has as its system lens elasticity. Briefly: Pharmacological Test-4: lens elasticity, once-daily instillation for 2 weeks. The class given is in vivo, C57BL/6J mice. Conditions: for Lens elasticity improvement: once per day for 14 days, 8-month-old mice. Here is the method:
The effect of once-daily instillation of Compound 1 for 2 weeks on the lens elasticity was examined.
Compound 1 was stirred with the addition of Vehicle A to give a 0.3% (w/v) emulsion, and the emulsion was diluted with the diluent to give a 0.1% (w/v) emulsion. Further, the resulting 0.1% (w/v) emulsion was diluted with the diluent to give a 0.03% (w/v) emulsion. Further, the resulting 0.03% (w/v) emulsion was diluted with the diluent to give a 0.01% (w/v) emulsion.
EV06 was sonicated with the addition of Vehicle A to give a 1.5% (w/v) solution, which was used for comparison to Compound 1 sample.
1) Each test sample (2.5 μL/eye) was instilled into the right eye of 8-month-old C57BL/6J mice with a Pipetman once per day (around 9:00) for 14 days. 2) After the final instillation, the mice were euthanized by carbon dioxide inhalation, and then the eyeballs were extracted and rinsed with Hank's balanced salt solution (HESS). 3) The sclera near the optic nerve was cut with a razor, the lens was removed through the incision, and the removed lens was immersed in HESS. 4) The lens was placed on a glass slide, and an all-in-one fluorescence microscope BZ-9000 (Keyence) was used to capture an image of the lens (Image a). 5) Next, one cover glass (Corning^(registered trade mark) 22×22 mm Square) was placed on the lens, and an image in which the thickness of the lens changed due to the weight was similarly captured (Image b). 6) A change in the lens diameter was calculated from the following Equation 1 wherein the lens diameter of Image a is subtracted from the lens diameter of Image b. Then, the lens elasticity improvement of each sample group compared with the vehicle control group was calculated from Equation 2 described below. The mean value of the vehicle control group was based on 5 eyes, the mean value of each of the sample groups of compound 1 and EV06 was based on 10 eyes.
(§1) Change in lens diameter=Lens diameter in Image b of each test sample−Lens diameter in Image a of each test sample (Equation 1)
(§2) Lens elasticity improvement of each sample group=Mean change in lens diameter of each Test sample group−Mean change in lens diameter of Vehicle control group (Equation 2)

The test system of series [3] is lens elasticity. Briefly: Pharmacological Test-3: lens elasticity, Compounds 5 and 6, 3 times per day for 14 days. The class given is in vivo,  mice. The procedure: The effects of Compounds 5 and 6 on the lens elasticity were investigated.
Compound 5 was stirred with the addition of Vehicle C to give a 0.03% (w/v) solution.
Compound 6 was stirred with the addition of Vehicle C to give a 0.03% (w/v) solution.
EV06 was stirred with the addition of Vehicle C to give a 0.03% (w/v) solution, which was used for comparison to the samples of Compounds 5 and 6.
1) Each test sample (2.5 μL/eye) was instilled into both eyes of 9-month-old […] mice with a Pipetman 3 times per day (around 9:00, 13:00 and 17:00) for 14 days. 2) After the final instillation, the mice were euthanized by carbon dioxide inhalation, and then the eyeballs were extracted and rinsed with Hank's balanced salt solution (HESS). 3) The sclera near the optic nerve was cut with a razor, the lens was removed through the incision, and the removed lens was immersed in HESS. 4) The lens was placed on a glass slide, and an all-in-one fluorescence microscope BZ-9000 (Keyence) was used to capture an image of the lens (Image a). 5) Next, one cover glass (Corning^(registered trade mark) 22×22 mm Square) was placed on the lens, and an image in which the thickness of the lens changed due to the weight was similarly captured (Image b). 6) A change in the lens diameter was calculated from the following Equation 1 wherein the lens diameter of Image a is subtracted from the lens diameter of Image b. Then, the lens elasticity improvement of each sample group compared with the vehicle control group was calculated from Equation 2 described below. The mean value of the vehicle control group was based on 8 eyes, and the mean value of each of the sample groups of Compounds 5 and 6 and EV06 was based on 10 eyes.
as §1, §2

For `O=C(CCCC[C@@H]1CCSS1)OCCN1CCN(CCO)CC1` [Compound 3], in series [1], the “slit lamp examination” value is on record as “No abnormalities were observed” and the “irritation in anterior segment of the eye” value is recorded as “low”. In series [1] (0.03% eye drop), the “Irritation Score of anterior segment of the eye: Bulbar conjunctival hyperemia” value (“Irritation Score … Bulbar conjunctival hyperemia” for short) was “+1”, the “Irritation Score of anterior segment of the eye: Discharge” value (from here on “Irritation Score … Discharge”) was “+1”, the “Irritation Score of anterior segment of the eye: Flare of palpebral conjunctiva” value (from here on “Irritation Score … of palpebral conjunctiva”) is reported as “+1” and the “Irritation Score of anterior segment of the eye: Hyperemia of nictitating membrane” value (shortened to “Irritation Score … of nictitating membrane”) is “+1”. Also, in series [1] (0.03% eye drop), the “Irritation Score of anterior segment of the eye: Palpebral conjunctival edema” value (shortened to “Irritation Score … Palpebral conjunctival edema”) is given as “+0.5” and the Slit lamp observation entry is “—”. Further, in series [1] (0.3% eye drop), the “Irritation Score … Bulbar conjunctival hyperemia” value is “+1 and +2”; the “Irritation Score … Discharge” value was “+1”; the “Irritation Score … of palpebral conjunctiva” value is given as “+1”; the “Irritation Score … of nictitating membrane” value is “+1”. Also, in series [1] (0.3% eye drop), the “Irritation Score … Palpebral conjunctival edema” value is “+1 and +0.5”; the Slit lamp observation result is “—”.

In the case of `C[N+](C)(C)CCOC(=O)CCCC[C@@H]1CCSS1.[Cl-]` [EV06, Lipoic acid choline ester, reference compound], the Lens elasticity improvement in the series with lens elasticity [2] (1.5% (w/v) solution in Vehicle A) stood at 5.8 μm; in the series with lens elasticity [3] (0.03% (w/v) solution in Vehicle C, both eyes, 3 times per day for 14 days, 9-month-old mice), 3.6 μm. Moreover, the “lens elasticity improving effect” value in the series on lens elasticity [3] (at a concentration of 0.03%) is recorded as “did not show lens elasticity improving effect”.

In the series with lens elasticity [2] (0.01% (w/v) emulsion), `CC(C)=CCOC(=O)CCCC[C@@H]1CCSS1` [Compound 1, 3-Methyl-2-buten-1-yl (R)-5-(1,2-dithiolan-3-yl)pentanoate] yielded a Lens elasticity improvement of 12.2 μm. This molecule had a Lens elasticity improvement with lens elasticity [2] (0.03% (w/v) emulsion) of 33.8 μm. In addition, in the series with lens elasticity [2] (0.03%, 0.1% and 0.3% sample groups, instilled once-daily), the “lens elasticity improvement compared with 1.5% EV06 group” value was “excellent results compared to 1.5% EV06 group”. The Lens elasticity improvement in the series with lens elasticity [2] (0.1% (w/v) emulsion) was determined as 34.1 μm. Also, in the series with lens elasticity [2] (0.3% (w/v) emulsion), the Lens elasticity improvement is 39.8 μm. Further, in series [1], the “slit lamp examination” value is recorded as “No abnormalities were observed” and the “irritation in anterior segment of the eye” value is listed as “No irritation was observed”. In series [1] (0.03% eye drop), the “Irritation Score … Bulbar conjunctival hyperemia” value is listed as “—”, the “Irritation Score … Discharge” value is “—”, the “Irritation Score … of palpebral conjunctiva” value was “—” and the “Irritation Score … of nictitating membrane” value is given as “—”. Also, in series [1] (0.03% eye drop), the “Irritation Score … Palpebral conjunctival edema” value was “—” and the Slit lamp observation entry is “—”. Moreover, in series [1] (0.3% eye drop), the “Irritation Score … Bulbar conjunctival hyperemia” value is reported as “—”, the “Irritation Score … Discharge” value was “—”, the “Irritation Score … of palpebral conjunctiva” value is on record as “—” and the “Irritation Score … of nictitating membrane” value is on record as “—”. Moreover, in series [1] (0.3% eye drop), the “Irritation Score … Palpebral conjunctival edema” value is “—” and the Slit lamp observation entry is given as “—”.
